Data from US7863265B2, “2-azetidinone derivatives and their use as cholesterol absorption inhibitors for the treatment of hyperlipidaemia” (AstraZeneca AB, priority 2005, dated 2011).

Assays:
[1] = system: 14C-cholesterol absorption; assay: In vivo testing of cholesterol absorption inhibitors (A); conditions: 0.2 μmol/kg by gavage, procedure A, C57BL/6 female mice
Description: In Vivo Testing of Cholesterol Absorption Inhibitors (A)
C57BL/6 female mice were maintained on regular chow diet and housed in individual cages to collect faeces. Mice were fasted for 3 hours and then gavaged with vehicle or compound. Half an hour later the mice were gavaged with radiolabelled cholesterol. Six hours after the ^14C-cholesterol gavage blood samples were taken via the tail and plasma prepared to determine how much cholesterol were absorbed. 24 hours after the gavage of ^14C-cholesterol the mice were bled and plasma were prepared for analysis. Faeces were collected for 24 hours to assess absorption efficiency.

Caco-2 cells = assay: Absorption in a Caco-2 cells model; assay type: in vitro ADME
Description: (§1) Absorption of the compounds of formula (I) was tested in a Caco-2 cells model (Gastroenterology 1989, 96, 736): […]

[2] = Absorption in a Caco-2 cells model; assay type: in vitro ADME; conditions: human
Description: as §1

SMILES | inhibition of 14C-cholesterol absorption [1] | Caco value (Caco-2 cells) | Papp [2]
CC(C)(c1ccccc1)[C@@H](NC(=O)CNC(=O)COc1ccc([C@@H]2[C@@H](SCC(O)c3ccc(F)cc3)C(=O)N2c2ccc(F)cc2)cc1)C(=O)O (single isomer, unassigned) [Example 5, N-{[4-((2R,3R)-1-(4-fluorophenyl)-3-{[(2R or S)-2-(4-fluorophenyl)-2-hydroxyethyl]thio}-4-oxoazetidin-2-yl)phenoxy]acetyl}glycyl-β,β-dimethyl-D-phenylalanine] | 78% |  | 
CC(C)(C)[C@@H](NC(=O)CNC(=O)COc1ccc([C@@H]2[C@@H](SC[C@H](O)c3ccc(F)cc3)C(=O)N2c2ccc(F)cc2)cc1)C(=O)O [Example 3, N-{[4-((2R,3R)-1-(4-fluorophenyl)-3-{[(2R or 6)-2-(4-fluorophenyl)-2-hydroxyethyl]thio}-4-oxoazetidin-2-yl)phenoxy]acetyl}glycyl-3-methyl-D-valine] | 73% | 0.02 ×10⁻⁶ cm/s | 
O=C(COc1ccc([C@@H]2[C@@H](SCC(O)c3ccc(F)cc3)C(=O)N2c2ccc(F)cc2)cc1)NCC(=O)N[C@H](CC1CCCCC1)C(=O)O (single isomer, unassigned) [Example 4, N-{[4-((2R,3R)-1-(4-fluorophenyl)-3-{[(2R or S)-2-(4-fluorophenyl)-2-hydroxyethyl]thio}-4-oxoazetidin-2-yl)phenoxy]acetyl}glycyl-3-cyclohexyl-D-alanine] | 75% |  | 0.04 ×10⁻⁶ cm/s
